Assay [1] deals with T1, human MrgX4 L83S (Homo sapiens, UniProt Q96LA9, L83S).
T1 construct: expressed in transfected cells; host or cells: CHO beta-arrestin cells
The experiment in a line: β-arrestin assay (CHO β-arrestin human MrgX4 L83S). The class given is cell-based. The note with it: for % inhibition ± SEM: test concentration not given.

The target in assay [2] is T2, human wildtype MrgX2 (Homo sapiens, UniProt Q96LB1).
T2 construct: expressed in transfected cells; host or cells: LN229 cells
T2 sequence (Q96LB1 1-330): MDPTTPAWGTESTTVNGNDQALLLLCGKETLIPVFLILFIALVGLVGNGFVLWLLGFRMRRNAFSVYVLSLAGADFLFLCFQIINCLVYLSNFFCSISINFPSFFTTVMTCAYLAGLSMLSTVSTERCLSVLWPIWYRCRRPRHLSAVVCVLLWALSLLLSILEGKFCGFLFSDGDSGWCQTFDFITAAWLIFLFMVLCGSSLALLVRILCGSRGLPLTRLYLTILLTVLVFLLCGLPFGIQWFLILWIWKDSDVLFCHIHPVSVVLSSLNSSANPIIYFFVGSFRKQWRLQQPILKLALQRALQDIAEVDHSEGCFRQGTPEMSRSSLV
The experiment in a line: calcium assay (LN229 cells recombinantly expressing human wildtype MrgX2). The note with it: for % inhibition ± SEM: test concentration not given. Format: cell-based.

Data on 64 compounds can be found in patent publication US20210128561A1, “MRGX Receptor Antagonists” (Rheinische-Friedrich-Wilhelms-Universität Bonn, priority 2019, published 2021).

T1 sequence (Q96LA9 whole entry L83S): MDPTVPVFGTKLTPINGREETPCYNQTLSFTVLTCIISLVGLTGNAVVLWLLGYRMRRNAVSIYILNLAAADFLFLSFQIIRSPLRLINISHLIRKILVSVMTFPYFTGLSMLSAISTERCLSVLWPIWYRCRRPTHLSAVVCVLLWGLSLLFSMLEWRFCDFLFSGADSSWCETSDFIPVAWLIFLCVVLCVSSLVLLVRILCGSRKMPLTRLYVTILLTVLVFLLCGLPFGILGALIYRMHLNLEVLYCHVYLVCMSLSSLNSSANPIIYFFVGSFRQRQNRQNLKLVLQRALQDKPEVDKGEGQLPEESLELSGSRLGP

Consider `Cc1[nH]c2nc3ccccc3n2c(=O)c1CCC(C)C` [A-12], for which, in assay [1], the IC50 (usually the midpoint of a concentration-inhibition curve) was > 10 µM and the “% inhibition ± SEM” value is on record as −25%.
`CCCc1[nH]c2nc3ccccc3n2c(=O)c1CCC` [B-45] showed an IC50 in assay [1] of 0.214 ± 0.032 µM. Further, in assay [2], the IC50 is > 100 µM and the “% inhibition ± SEM” value is 89%.
The corresponding values for `CCCc1c(C(C)C)[nH]c2nc3ccccc3n2c1=O` [B-42] are 0.512 ± 0.107 µM, > 100 µM and 68%.
For `Cc1cc(=O)n2c(n1)[nH]c1ccccc12` [B-33], in assay [1], the IC50 is > 100 µM and the “% inhibition ± SEM” value is 24%.
As to `Cc1[nH]c2nc3ccccc3n2c(=O)c1CCO` [B-34], the IC50 in assay [1] and in assay [2] was > 100 µM each time. The “% inhibition ± SEM” value in assay [1] is given as 22%; in assay [2], −2%.
In the case of `Cc1[nH]c2nc3ccccc3n2c(=O)c1CCc1ccccc1` [A-14], in assay [1], the IC50 is > 10 µM and the “% inhibition ± SEM” value is 19%.
The corresponding values for `CNCCc1c(C)[nH]c2nc3ccccc3n2c1=O` [C-68] are > 100 µM and 8%.
With `CCc1c(C(C)C)nc2n(Cc3ccccc3)c3ccc(C)cc3n2c1=O` [C-72], in assay [1], the IC50 was > 10 µM and the “% inhibition ± SEM” value was 39%.
Take `Cc1cc(=O)n2c(nc3cc4ccccc4cc32)[nH]1` [B-62]: in assay [1], the IC50 was > 100 µM and the “% inhibition ± SEM” value stood at 18%.
The corresponding values for `CCOC(=O)c1cnc2[nH]c3ccccc3n2c1=O` [A-3] are > 100 µM and 25%.
Regarding `CC(C)c1cc(=O)n2c(nc3ccccc32)[nH]1` [A-17], the IC50 in assay [1] is 3.22 ± 0.82 µM; in assay [2] it was > 100 µM. In assay [2], the “% inhibition ± SEM” value is given as 70%.
As for `CCc1c(C(C)C)nc2n(Cc3ccccc3)c3cc(C)ccc3n2c1=O` [C-73], in assay [1], the IC50 was > 10 µM and the “% inhibition ± SEM” value worked out at 40%.
The corresponding values for `CCc1c(-c2cccs2)[nH]c2nc3ccccc3n2c1=O` [C-80] are > 10 µM and 34%.
In the case of `CCc1c(C(C)(C)C)[nH]c2nc3ccccc3n2c1=O` [C-76], in assay [1], the IC50 is 0.349 ± 0.065 µM.
As to `Cc1[nH]c2nc3ccccc3n2c(=O)c1C` [A-8], the 50% inhibitory concentration (IC50) in assay [1] turned out to be 11.6 ± 3.7 µM; in assay [2], 2.89 ± 0.24 µM.
As for `CCc1c(C)nc2[nH]ccn2c1=O` [B-31], in assay [1], the IC50 is > 100 µM and the “% inhibition ± SEM” value is listed as 40%.
For `O=C(O)c1cnc2[nH]c3ccccc3n2c1=O` [B-32] the same measures were > 100 µM and 45%.
For `COC(=O)Cc1cc(=O)n2c(nc3ccccc32)[nH]1` [A-28] the same measures were > 100 µM and 4%.
The corresponding values for `O=c1cc(-c2ccccc2)[nH]c2nc3ccccc3n12` [A-20] are > 100 µM and −2%.
With `O=c1ccnc2[nH]c3ccccc3n12` [A-2], in assay [1], the IC50 is > 100 µM and the “% inhibition ± SEM” value was determined as 18%.
For `CC(C)c1cc(=S)n2c(nc3ccccc32)[nH]1` [B-56], the IC50 was found to be 0.148 ± 0.042 µM in assay [1] and 0.00394 ± 0.00167 µM in assay [2].
The corresponding values for `CCc1c(C(C)C)[nH]c2nc3cc(C)ccc3n2c1=O` [C-71] are 0.091 ± 0.0292 µM and 0.000446 ± 0.000142 µM.
For `Cc1cc(=O)n2c3ccccc3nc2n1CC#N` [A-7], in assay [1], the IC50 was > 100 µM and the “% inhibition ± SEM” value worked out at 43%.
The corresponding values for `CSc1cc(C(C)C)nc2nc3ccccc3n12` [B-61] are > 10 µM and 2%.
As to `CCc1c(O)[nH]c2nc3ccccc3n2c1=O` [A-24], the IC50 in assay [1] and in assay [2] was > 100 µM in each case. Also, the “% inhibition ± SEM” value is given as 16% in assay [1] and 2% in assay [2].
Turning to `Cc1cc(=O)n2c(n1)oc1ccccc12` [B-59, 2-Methyl-4H-benzo[4,5]oxazolo[3,2-a]pyrimidin-4-one], in assay [1], the IC50 was > 100 µM and the “% inhibition ± SEM” value worked out at 13%.
Consider `CCc1c(C(C)C)[nH]c2nc3cc(C)c(C)cc3n2c1=O` [B-39], for which the IC50 in assay [1] is 0.0877 ± 0.0368 µM; in assay [2] it was 0.0184 ± 0.0054 µM.
For `CCc1c(C(C)C)[nH]c2nc3cc(Cl)c(Cl)cc3n2c1=O` [B-41], the IC50 in assay [1] worked out at 0.477 ± 0.087 µM; in assay [2], 0.00827 ± 0.00082 µM.
`Cc1[nH]c2nc3ccccc3n2c(=O)c1CCCl` [C-67] displayed an IC50 in assay [1] of 8.04 ± 1.63 µM.
Take `CCCCc1c(O)[nH]c2nc3ccccc3n2c1=O` [A-25]: in assay [1], the IC50 was > 100 µM and the “% inhibition ± SEM” value amounted to 22%.
Regarding `CC(C)(C)c1cc(=O)n2c(nc3ccccc32)[nH]1` [A-18], in assay [1], the IC50 is > 100 µM and the “% inhibition ± SEM” value was determined as 48%.
`CCCc1cc(=O)n2c(nc3ccccc32)[nH]1` [A-19] had an IC50 in assay [1] of 14.7 ± 1.3 µM. In assay [2], the IC50 was > 100 µM and the “% inhibition ± SEM” value amounted to 27%.
`CCCc1[nH]c2nc3cc(C)c(C)cc3n2c(=O)c1CC` [B-44]: the IC50 in assay [1] came to 1.4 ± 0.36 µM; in assay [2] it was 0.199 ± 0.025 µM.
In assay [1], `CCc1c(C(C)C)[nH]c2nc3ccc(Cl)cc3n2c1=O` [C-85] came in with an IC50 of 0.223 ± 0.019 µM.
In the case of `Cc1cc(=O)n2c3ccccc3nc2n1Cc1ccccc1` [A-5], in assay [1], the IC50 was > 10 µM and the “% inhibition ± SEM” value is on record as −5%.
In the case of `CCc1c(C)n(C)c2nc3ccccc3n2c1=O` [A-30], the IC50 in assay [1] is > 10 µM; in assay [2], > 100 µM. Moreover, the figures for the “% inhibition ± SEM” value in assay [1] and in assay [2] were 2% and 31%, respectively.
As for `O=C(O)Cc1cc(=O)n2c(nc3ccccc32)[nH]1` [A-27], in assay [1], the IC50 was > 100 µM and the “% inhibition ± SEM” value was −18%.
With `COCc1cc(=O)n2c(nc3ccccc32)[nH]1` [A-26], in assay [1], the IC50 was > 100 µM and the “% inhibition ± SEM” value is given as −13%.
Regarding `CCOC(=O)CCc1c(C)[nH]c2nc3ccccc3n2c1=O` [A-15], the IC50 in assay [1] is 1.4 ± 0.88 µM; in assay [2] it was > 100 µM. Besides, the “% inhibition ± SEM” value in assay [2] is 3%.
`NC1=NC=NC2Nc3ccccc3N12` (centres unmarked) [B-66]: in assay [1], the IC50 is > 100 µM and the “% inhibition ± SEM” value is 4%.
For the compound `Cc1[nH]c2nc3ccccc3n2c(=O)c1CCC#N` [A-16], in assay [1], the IC50 was > 100 µM and the “% inhibition ± SEM” value is given as 26%.
Take `CCc1c(C(C)C)[nH]c2nc3c(C)cccc3n2c1=O` [B-38]: in assay [1], the IC50 was > 100 µM and the “% inhibition ± SEM” value came out at 15%. Further, in assay [2], the IC50 came to 0.054 ± 0.0192 µM.
Regarding `CCCn1c(C)cc(=O)n2c3ccccc3nc12` [A-4], in assay [1], the IC50 is > 100 µM and the “% inhibition ± SEM” value amounted to 35%.
For the compound `CCOC(=O)Cc1cc(=O)n2c(nc3ccccc32)[nH]1` [A-29], in assay [1], the IC50 is > 100 µM and the “% inhibition ± SEM” value is −33%.
Regarding `Cc1[nH]c2nc3ccccc3n2c(=O)c1CCN=[N+]=[N-]` [C-69], in assay [1], the IC50 is > 100 µM and the “% inhibition ± SEM” value stood at 9%.
As for `CCc1c(C(C)C)[nH]c2nc3cc(F)c(F)cc3n2c1=O` [B-40], the IC50 in assay [1] turned out to be 0.0225 ± 0.0024 µM; in assay [2] it was 0.00042 ± 5.4e-05 µM.
Take `Cc1cc(=S)n2c(nc3ccccc32)[nH]1` [B-57]: in assay [1], the IC50 is > 100 µM and the “% inhibition ± SEM” value is recorded as −4%.
As for `CCCc1c(-c2ccccc2)[nH]c2nc3ccccc3n2c1=O` [A-21], the IC50 in assay [1] is 0.583 ± 0.049 µM; in assay [2], 0.0121 ± 0.0015 µM.
With `CCc1c(-c2ccc(OC)cc2)[nH]c2nc3ccccc3n2c1=O` [B-46], the IC50 in assay [1] was 0.25 ± 0.061 µM.
In the case of `CCc1c(CC(C)C)[nH]c2nc3ccccc3n2c1=O` [C-78], the IC50 amounted to 0.468 ± 0.052 µM in assay [1] and 0.0513 ± 0.0191 µM in assay [2].
Turning to `COCCc1c(C)[nH]c2nc3ccccc3n2c1=O` [B-35], in assay [1], the IC50 was > 10 µM and the “% inhibition ± SEM” value is recorded as 20%.
As for `Cc1[nH]c2nc3ccccc3n2c(=O)c1Cc1ccccc1` [A-13], in assay [1], the IC50 was > 100 µM and the “% inhibition ± SEM” value is 24%.
The corresponding values for `Cc1cc(=O)n2c3ccccc3nc2n1Cc1ccc(Cl)cc1` [A-6] are > 10 µM and 14%.
With `CCc1c(C(C)C)[nH]c2nc3ccc(C)cc3n2c1=O` [C-70], the IC50 was 0.147 ± 0.015 µM in assay [1] and 0.000352 ± 7e-05 µM in assay [2].
On to `CCCc1[nH]c2nc3ccccc3n2c(=O)c1CC` [B-43], for which the IC50 in assay [1] worked out at 0.278 ± 0.042 µM.
Turning to `O=c1ccsc2nc3ccccc3n12` [B-58, 4H-benzo[4,5]imidazo[2,1-b][1,3]thiazin-4-one], in assay [1], the IC50 was > 100 µM and the “% inhibition ± SEM” value is reported as −44%.
For `COC(=O)c1cc(=O)[nH]c2nc3ccccc3n12` [B-65] the same measures were > 100 µM and 48%.
The corresponding values for `Cc1cc(=O)n2cc[nH]c2n1` [A-1] are > 100 µM and 4%.
The corresponding values for `CC(C)c1cc(=O)n2c(nc3cc4ccccc4cc32)[nH]1` [B-63] are > 100 µM and 6%.
For the compound `N#CCCc1c(-c2ccccc2)[nH]c2nc3ccccc3n2c1=O` [A-22], in assay [1], the IC50 is > 100 µM and the “% inhibition ± SEM” value is 2%.
Turning to `O=c1ccn2c(n1)[nH]c1ccccc12` [B-64, Benzo[4,5]imidazo[1,2-a]pyrimidin-2(10H)-one], in assay [1], the IC50 was > 100 µM and the “% inhibition ± SEM” value came to 0%.
Turning to `CCc1c(C2CC2)[nH]c2nc3ccccc3n2c1=O` [C-77], in assay [1], half-maximal inhibition (IC50) required 1.18 ± 0.33 µM.
On to `CCCCc1c(C)[nH]c2nc3ccccc3n2c1=O` [A-11], for which, in assay [1], the IC50 was > 100 µM and the “% inhibition ± SEM” value was 37%.
For “2-Methyl-4H-benzo[4,5]thiazolo[3,2-a]pyrimidin-4-one [B-60]” the same measures were > 100 µM and 14%.
